This is an account of results in US20050257279A1, “Agouti-related protein deficient cells, non-human transgenic animals and methods of selecting compounds which regulate energy metabolism” (priority 2002, published 2005).

Entries after “also recorded” stand apart in the source; their conditions may differ.

The subject of test [1] is primary cultures of rat anterior pituitary cells. The experiment in a line: Rat pituitary growth hormone (GH) release. Format: cell-based. The note with it: 15 min incubation. As for the experimental part:
Rat Pituitary Growth Hormone (GH) Release: Compound functional activity was evaluated by measuring growth hormone secretion from primary cultures of rat anterior pituitary cells (Small, et al., (1998) Regulatory Peptides 75-76 and 301-307). Cells were isolated from rat pituitaries by enzymatic digestion with 250 μg/mL DNAse 1 and 0.5% trypsin in Hanks' balanced salt solution. The cells were suspended in culture medium and adjusted to a concentration of 1.5×10^5 cells/ml and 1.0 ml of this suspension was placed in each well of a 24-well tray. Cells were maintained in a humidified 5% CO2/95% air atmosphere at 37° C. for 3-4 days. The culture medium consisted of DMEM containing 0.37% NaHCO3, 10% horse serum, 2.5% fetal bovine serum, 1% nonessential amino acids, 1% glutamine, 1% nystatin, and 0.1% gentamicin. Before testing compounds for their capacity to […] GH release, cells were washed twice 1.5 hr before and once more immediately before the start of the experiment with the above culture medium containing 25 mM Hepes (pH 7.4). Compounds were tested in quadruplicate by adding them in 1 ml of fresh medium to each well and incubating them at 37° C. for 15 minutes followed by centrifugation at 2000×g for 15 min to remove any cellular material. The supernatant fluid was assayed for GH by a double antibody radioimmunoassay.

A short description of test [2]: 4-hour light-phase food intake in mice. The test is classed as in vivo. Conditions: human ghrelin 3 μmole/kg i.p. An excerpt: Mice were individually housed at approximately one month of age. Regular mouse chow (Teklad 7012: 5.67% kcal from fat; 3.41 kcal/g, Harlan Teklad) was provided as pellet food in wire cage tops containing food hoppers.
Food intake values were reported as means ± standard errors of the means, and analyzed by the two tailed, unpaired Student t test. P values of <0.05 were reported as significant.

The EC50 is the concentration that produces a half-maximal response. A high value points to lower potency in that assay.

As to `CCCCCCCC(=O)OC[C@H](NC(=O)[C@H](CO)NC(=O)CN)C(=O)N[C@@H](Cc1ccccc1)C(=O)N[C@@H](CC(C)C)C(=O)N[C@@H](CO)C(=O)N1CCC[C@H]1C(=O)N[C@@H](CCC(=O)O)C(=O)N[C@@H](Cc1c[nH]cn1)C(=O)N[C@@H](CCC(N)=O)C(=O)N[C@@H](CCCNC(=N)N)C(=O)N[C@H](C(=O)N[C@@H](CCC(N)=O)C(=O)N[C@@H](CCC(N)=O)C(=O)N[C@@H](CCCNC(=N)N)C(=O)N[C@@H](CCCCN)C(=O)N[C@@H](CCC(=O)O)C(=O)N[C@@H](CO)C(=O)N[C@@H](CCCCN)C(=O)N[C@@H](CCCCN)C(=O)N1CCC[C@H]1C(=O)N1CCC[C@H]1C(=O)N[C@@H](C)C(=O)N[C@@H](CCCCN)C(=O)N[C@@H](CC(C)C)C(=O)N[C@@H](CCC(N)=O)C(=O)N1CCC[C@H]1C(=O)N[C@@H](CCCNC(=N)N)C(=O)O)C(C)C` [Ghrelin], the response in test [1] was half-maximal at 700 pM (EC50). The “effect on 4-hour food intake” value in test [2] (Agrp-/-, Npy-/- double knockout mice) is on record as “no effect; also recorded: without effect”; in test [2] (wild-type mice, relative to saline) it was “stimulated 4-hour food intake”. Further, the “stimulation of 4-hour food intake” value in test [2] (wild-type control mice, ad libitum fed, relative to saline) was 120%.
